Laboratory results from publication PMC8121805, “Discovery of first-in-class inhibitors of ASH1L histone methyltransferase with anti-leukemic activity” (Nature Communications, 2021).
Values joined by “and” are separate entries in the source; they are usually repeats but may differ in a detail not shown here. Equal values may be shown once.

Tests used:
Type in all cases: cell-based, human
MOLM13 cells = experiment: MTT cell viability assay; settings: MTT, 7 days
Experimental: (§1) FBS and 1% penicillin/streptomycin. […] Media was changed on day 3 or 4 and compounds were resupplied. […] Cell suspensions (100 μL) were transferred to the 96-well plates for each sample in quadruplicate at the time of media change. At day 7, 10 µL of MTT reagent (M6494, Molecular Probes™) was added to each well of the 96 well plate and incubated at 37 °C for 4 h. The formazan was then solubilized by adding 100 µL acidified 10% SDS solution and incubated at 37 °C overnight. Plates were read for absorbance at 570 nm using a PHERAstar BMG microplate reader. The experiments were performed two times in quadruplicates with calculation of mean and SD for each condition. Data were analyzed in Prism 8.0.0 to obtain GI50 values.
(§2) Supplementary Figure 7. […] (a)
(§3) Titration curves from the MTT cell viability assay performed after 4, 7, and 11 (or 10) days of
(§4) Titration curves from the MTT cell viability assay performed after 7 days of treatment of KOPN8 ,
(§5) MOLM13 and MV4;11 cell lines harboring MLL1 translocation (MLL1-r) or K562 cell line (non-
(§6) Representative graphs are shown
(§7) from two independent MTT experiments performed for each cell line.

MV4;11 cells [1] = experiment: MTT cell viability assay; settings: MTT, 7 days
Experimental: as §1, §2, §3, §4, §5, §6, §7

RS4;11 cells = experiment: MTT cell viability assay; settings: 7 days
Experimental: (§8) Human leukemia cells K562, MV4;11 and RS4;11 (purchased from ATCC) and KOPN8, MOLM13 (purchased from DSMZ) were cultured in RPMI 1640 (Invitrogen) supplemented with 10% heat inactivated (h.i.) FBS and 1% penicillin/streptomycin (Invitrogen). SET2 cells (purchased from DSMZ) were cultured in RPMI 1640 supplemented with 20% h.i. FBS and 1% penicillin/streptomycin. Cells were plated at 1 × 10^5 to 2 × 10^5 cells/mL depending on cell line and treated with 0.25% DMSO or varying concentrations of compounds and incubated at 37 °C, 5% CO2 incubator for 7 days. Media was changed on day 3 or 4 and compounds were resupplied. […] Cell suspensions (100 μL) were transferred to the 96-well plates for each sample in quadruplicate at the time of media change. At day 7, 10 µL of MTT reagent (M6494, Molecular Probes™) was added to each well of the 96 well plate and incubated at 37 °C for 4 h. The formazan was then solubilized by adding 100 µL acidified 10% SDS solution and incubated at 37 °C overnight. Plates were read for absorbance at 570 nm using a PHERAstar BMG microplate reader. The experiments were performed two times in quadruplicates with calculation of mean and SD for each condition. Data were analyzed in Prism 8.0.0 to obtain GI50 values.

SET2 cells = experiment: MTT cell viability assay; settings: MTT, 7 days
Experimental: as §8

KOPN8 cells = experiment: Flow cytometry of CD11B expression (differentiation); settings: 7 days
Experimental: (§9) In addition, 1 × 10^5 cells per sample were stained with Zombie Aqua™ dye (1:100 dilution) for 15 min using the Zombie Aqua™ Fixable Viability Kit (Zombie Aqua™ Fixable Viability Kit, Biolegend®) […] and then for 30 min with an anti-CD11B-PE antibody (982606, ICRF44, Biolegend®) or anti-CD11B-Pacific Blue (101224, BD BioLegend) antibody at 1:50 dilution, according to the No-wash Sequential Staining Protocol described by the manufacturer (BioLegend, Zombie Aqua Fixable Viability Kit). Cells were washed twice with 500 µL PBS containing 1% FBS and resuspended in 200 µL PBS with 1% FBS.

MV4;11 cells [2] = experiment: as above; settings: for MV4;11 % CD11B+ cells: 7 days
Experimental: as §9

MV4;11 cells [3] = experiment: Annexin V apoptosis assay (flow cytometry); settings: for MV4;11 % Annexin V(+) cells: 7 days
[4] = test system: MLL leukemia cells (MV4;11, MOLM13, KOPN8, RS4;11); experiment: MTT cell viability assay, MLL leukemia cells as a group; settings: 7 days
Experimental: as §8
Supplementary Figure 4. Cell viability assay for AS-6 in MLL leukemia cell lines. Titration curves from the MTT cell viability assay performed after 7 days of treatment of human MLL1- […]
replicates. Representative graphs are shown from two independent MTT experiments performed […]
as §2
Titration curves from the MTT cell viability assay performed after 4, 7, and 11 (or 10) days of […]
Titration curves from the MTT cell viability assay performed after 7 days of treatment of KOPN8 , MOLM13 and MV4;11 cell lines harboring MLL1 translocation (MLL1-r) or K562 cell line (non- […]
Representative graphs are shown from two independent MTT experiments performed for each cell line. GI50 values correspond to […]

CN1CC(C(=O)NCc2ccc3c(-c4cccc(C(N)=O)c4)cn(C4CCN(S(=O)(=O)C(F)(F)F)CC4)c3c2)C1 [AS-nc]
% activity MOLM-13 (MOLM13 cells; log[compound] -4.92082): 79.465% and 80.5109% and 111.082% and 96.078%
% activity MOLM-13 (MOLM13 cells; log[compound] -5.22185): 91.4119% and 88.8777% and 88.5559% and 94.107%
% activity MOLM-13 (MOLM13 cells; log[compound] -5.52288): 100.261% and 95.3942% and 100.744% and 98.5318%
% activity MOLM-13 (MOLM13 cells; log[compound] -5.82391): 98.572% and 96.1183% and 100.945% and 90.7281%
% activity MOLM-13 (MOLM13 cells; log[compound] -6.12494): 105.41% and 99.4972% and 101.227% and 102.474%
% activity MOLM-13 (MOLM13 cells; log[compound] -6.42597): 103.801% and 99.1352% and 97.8479% and 99.2156%
% activity MV4;11 (MV4;11 cells [1]; log[compound] -4.92082): 33.9271% and 38.4523% and 37.682% and 37.2006%
% activity MV4;11 (MV4;11 cells [1]; log[compound] -5.22185): 75.4242% and 68.4439% and 74.2207% and 76.0501%
% activity MV4;11 (MV4;11 cells [1]; log[compound] -5.52288): 93.14% and 102.624% and 98.3873% and 102.19%
% activity MV4;11 (MV4;11 cells [1]; log[compound] -5.82391): 95.1619% and 88.5666% and 92.2253% and 96.7986%
% activity MV4;11 (MV4;11 cells [1]; log[compound] -6.12494): 101.179% and 95.4026% and 92.466% and 99.4464%
% activity MV4;11 (MV4;11 cells [1]; log[compound] -6.42597): 105.753% and 96.7024% and 99.7834% and 97.7615%
% activity RS4;11 (RS4;11 cells; log[compound] -4.92082): 85.5125% and 87.6993% and 89.3394% and 75.672%
% activity RS4;11 (RS4;11 cells; log[compound] -5.22185): 105.376% and 104.647% and 93.5307% and 91.5262%
% activity RS4;11 (RS4;11 cells; log[compound] -5.52288): 102.096% and 100.638% and 93.713% and 78.4055%
% activity RS4;11 (RS4;11 cells; log[compound] -5.82391): 120.137% and 113.941% and 76.4009% and 77.1298%
% activity RS4;11 (RS4;11 cells; log[compound] -6.12494): 99.7267% and 104.647% and 93.8952%
% activity RS4;11 (RS4;11 cells; log[compound] -6.42597): 106.287% and 103.553% and 98.8155% and 91.344%
% activity SET2 (SET2 cells; log[compound] -4.92082): 98.5542% and 101.644% and 102.951% and 102.436%
% activity SET2 (SET2 cells; log[compound] -5.22185): 96.2567% and 98.5146% and 98.9107% and 94.9495%
% activity SET2 (SET2 cells; log[compound] -5.52288): 90.1168% and 94.8703% and 93.8007% and 101.723%
% activity SET2 (SET2 cells; log[compound] -5.82391): 80.8081% and 86.1953% and 84.7693% and 93.5235%
% activity SET2 (SET2 cells; log[compound] -6.12494): 93.2858% and 94.8703% and 102.04% and 107.625%
% activity SET2 (SET2 cells; log[compound] -6.42597): 105.803% and 101.208% and 102.278% and 90.711%
KOPN8 % CD11B+ cells (KOPN8 cells; 2 uM): 0.42% and 0.43% and 0.48%
KOPN8 % CD11B+ cells (KOPN8 cells; 4 uM): 0.64% and 0.72% and 0.67%
KOPN8 % CD11B+ cells (KOPN8 cells; 6 uM): 0.89% and 0.7% and 0.72%
MV4;11 % CD11B+ cells (MV4;11 cells [2]; 2 uM): 1.31% and 1.08% and 1.06%
MV4;11 % CD11B+ cells (MV4;11 cells [2]; 4 uM): 0.67% and 0.84% and 0.66%
MV4;11 % CD11B+ cells (MV4;11 cells [2]; 6 uM): 1.1% and 1.04% and 1.27%
differentiation in MLL leukemia cells (MV4;11 cells [2]; MV4;11 and KOPN8): not observed
MV4;11 % Annexin V(+) cells (MV4;11 cells [3]; 2 uM): 3.62% and 6.04% and 7.38%
MV4;11 % Annexin V(+) cells (MV4;11 cells [3]; 4 uM): 2.35% and 3.67% and 4.83%
MV4;11 % Annexin V(+) cells (MV4;11 cells [3]; 6 uM): 3% and 3.59% and 6.28%
apoptosis in the MLL leukemia cells (Annexin V positive cells) (MV4;11 cells [3]; MV4;11 and KOPN8): not observed
effect on MLL leukemia cells (viability) [4]: no or much weaker effects
